Assay results reported in patent publication US5633009A, “Transdermal administration of azapirones” (Sano Corporation, priority 1993, dated 1997).

Assays:
[1] = system: psychogenic symptomatologies; settings: oral; anxiety, depression, panic disorders, nicotine dependence and others; cited from earlier work
[2] = in vivo, po; cited from earlier work
[3] = clinical; settings: human, in vivo
[4] = system: depression; assay: treatment of out-patients with clinically assessed depression; assay type: in vivo, human; settings: transdermal device of Example 6, daily for four weeks; twenty out-patients in two groups
Procedure: Transdermal delivery devices are prepared as described in Example 6. Twenty out-patients comprised of both males and females and suffering from clinically assessed depression are divided into two groups.

[5] = system: nicotine dependence / nicotine withdrawal symptoms; assay: smoking cessation: nicotine dependence and withdrawal symptoms in individuals attempting to stop smoking; assay type: in vivo, human; settings: transdermal device of Example 1, 20 cm^2, changed once a day for 21 days; five individuals
Procedure: Transdermal delivery devices are prepared as described in Example 1.

[6] = system: premenstrual syndrome; assay: treatment of women suffering from premenstrual syndrome; assay type: in vivo, human; settings: transdermal device of Example 6, five days preceding the onset of menstruation; eight women
[7] = examination of patch for recrystallization after 24 months storage; assay type: physicochemical; settings: Example 2 matrix patch (polyvinylacetate, isocetyl alcohol)
Procedure: The matrix layer mixture is slot die coated onto the backing layer. To do this, the mixture is allowed to flow through a slot to form a thin coat of a desired thickness, containing approximately 20 mg/cm^2 of the mixture, which is deposited onto a layer of polyester film laminate backing layer (ScotchPak 1012, 3M Corporation, St. Paul, Minn.).
A layer of double-sided pressure-sensitive polyacrylate adhesive and a layer of silicone coated polyester release liner are laminated to the face of the matrix facing away from the backing layer to form a quadruple laminate of backing layer/buspirone loaded matrix layer/pressure-sensitiveadhesive layer/release liner (peel strip) layer. […] For use, one transdermal buspirone delivery device is removed from its packet, the release liner (peel strip) layer is removed and discarded, and the pressure-sensitive adhesive layer is applied firmly to the patient's arm.

Tmax ([3]; po) | AUC ([3]; topical or ocular) | Cmax ([3]; topical or ocular) | Tmax ([3]; topical or ocular) | recrystallization in patch on storage [7] | Compound | clinical response of psychogenic symptomatologies [1] | absorption from the gastrointestinal tract [2] | improvement of depression versus placebo patches [4] | nicotine dependence [5] | symptoms including drowsiness, restlessness, headache, irritability, inability to concentrate, and increased appetite [5] | premenstrual syndrome symptoms [6]
0.8 h | 12.7 ng·h/mL | 0.79 ng/mL | 16.5 h | – | O=C1CC2(CCCC2)CC(=O)N1CCCCN1CCN(c2ncccn2)CC1 [buspirone] | responsive to oral buspirone | poorly absorbed | significant improvement | decrease in nicotine dependence | decrease in symptoms | decrease in their symptoms
– | – | – | – | no recrystallization | O=C1c2ccccc2S(=O)(=O)N1CCCCN1CCN(c2ncccn2)CC1 [ipsapirone] | – | – | – | – | – | –
